The values that follow come from ChEMBL document CHEMBL3779879, “Structural hybridization of three aminoglycoside antibiotics yields a potent broad-spectrum bactericide that eludes bacterial resistance enzymes” (2016).

Common to all, as to assay type: functional
For one assay, the system named is Enterobacter cloacae. The assay can be described thus: Antibacterial activity against Enterobacter cloacae expressing APH(3')-I, ANT(2'')-I, AAC(6').
Assay [1] concerns Staphylococcus aureus. The assay can be described thus: Antibacterial activity against Staphylococcus aureus expressing AAC(6')/APH(2'').
Assay [2] deals with Acinetobacter baumannii. The assay can be described thus: Antibacterial activity against Acinetobacter baumannii expressing AAC(3)-I, APH(3')-VI, ANT(2'')-I.
The subject of assay [3] is Acinetobacter baumannii. The assay can be described thus: Antibacterial activity against Acinetobacter baumannii.
For assay [4], the system named is Staphylococcus aureus. The assay can be described thus: Antibacterial activity against Staphylococcus aureus expressing ANT(4')-I.
The test system of a further assay is Klebsiella pneumoniae. The assay can be described thus: Antibacterial activity against Klebsiella pneumoniae ATCC 10031.
For assay [5], the system named is Escherichia coli. The assay can be described thus: Antibacterial activity against Escherichia coli expressing ANT(2'')-I.
Assay [6] concerns Escherichia coli. The assay can be described thus: Antibacterial activity against Escherichia coli expressing AAC(3)-IV.
Assay [7] relates to Staphylococcus aureus. The assay can be described thus: Antibacterial activity against Staphylococcus aureus expressing APH(3'/5'')-III.
Assay [8] has as its system Staphylococcus aureus. The assay can be described thus: Antibacterial activity against Staphylococcus aureus ATCC 29213.
Assay [9] deals with Escherichia coli. The assay can be described thus: Antibacterial activity against Escherichia coli expressing A-site methyltransferase ArmA.
The test system of assay [10] is Escherichia coli. The assay can be described thus: Antibacterial activity against Escherichia coli expressing APH(3')-Ib.
Assay [11] concerns Pseudomonas aeruginosa. The assay can be described thus: Antibacterial activity against Pseudomonas aeruginosa expressing AAC(6')-II.
Assay [12] relates to Escherichia coli. The assay can be described thus: Antibacterial activity against Escherichia coli ATCC 25922.
In assay [13] the test system is Pseudomonas aeruginosa. The assay can be described thus: Antibacterial activity against Pseudomonas aeruginosa ATCC 27853 expressing APH(3')-IIa.
In assay [14] the test system is Pseudomonas aeruginosa. The assay can be described thus: Antibacterial activity against Pseudomonas aeruginosa expressing ANT(4')-II.

Usually MIC stands for the lowest concentration that inhibits growth of the organism.

Each structure is given as a SMILES string. Converted amounts (≈) assume the structure as drawn.

In the case of `NC[C@H]1O[C@H](O[C@H]2[C@H](O[C@@H]3O[C@H](CO)[C@@H](O)[C@H]3O)[C@@H](O)[C@H](N)C[C@@H]2N)[C@H](N)[C@@H](O)[C@@H]1O` [RIBOSTAMYCIN], the minimal inhibitory concentration (MIC) was more than 64 µg/mL against Enterobacter cloacae; more than 64 µg/mL in the assay with Staphylococcus aureus [1]; more than 64 µg/mL against Acinetobacter baumannii [2]; 8 µg/mL (≈ 17.6 µM) against Acinetobacter baumannii [3]; more than 64 µg/mL in the assay on Staphylococcus aureus [4]; 2 µg/mL (≈ 4.4 µM) against Klebsiella pneumoniae. The MIC against Escherichia coli [5] is 8 µg/mL (≈ 17.6 µM); against Escherichia coli [6] it was more than 64 µg/mL; against Staphylococcus aureus [7], more than 64 µg/mL; with Staphylococcus aureus [8], 16 µg/mL (≈ 35.2 µM); in the assay with Escherichia coli [9], 8 µg/mL (≈ 17.6 µM); in the assay on Escherichia coli [10], more than 64 µg/mL. Further, the MIC against Pseudomonas aeruginosa [11] was more than 64 µg/mL; with Escherichia coli [12], 8 µg/mL (≈ 17.6 µM); in the assay with Pseudomonas aeruginosa [13], more than 64 µg/mL; against Pseudomonas aeruginosa [14], more than 64 µg/mL.
For `CN[C@@H]1[C@@H](O)[C@@H](O[C@@H]2[C@@H](O)[C@H](O[C@H]3OC(CN)=CC[C@H]3N)[C@@H](N)C[C@H]2N)OC[C@]1(C)O` [SISOMICIN], the MIC against Enterobacter cloacae was more than 64 µg/mL; with Staphylococcus aureus [1] it was more than 64 µg/mL; in the assay with Acinetobacter baumannii [2], more than 64 µg/mL; against Acinetobacter baumannii [3], 0.5 µg/mL (≈ 1.12 µM); against Staphylococcus aureus [4], 1 µg/mL (≈ 2.23 µM); against Klebsiella pneumoniae it was 0.25 µg/mL (≈ 0.559 µM). Besides, the MIC was 64 µg/mL (≈ 143 µM) in the assay on Escherichia coli [5]; 32 µg/mL (≈ 71.5 µM) against Escherichia coli [6]; 0.25 µg/mL (≈ 0.559 µM) against Staphylococcus aureus [7]; 0.5 µg/mL (≈ 1.12 µM) against Staphylococcus aureus [8]; more than 64 µg/mL with Escherichia coli [9]; 0.25 µg/mL (≈ 0.559 µM) against Escherichia coli [10]. For the same molecule, the MIC against Pseudomonas aeruginosa [11] was determined as 32 µg/mL (≈ 71.5 µM); in the assay on Escherichia coli [12], 0.5 µg/mL (≈ 1.12 µM); in the assay with Pseudomonas aeruginosa [13], 0.5 µg/mL (≈ 1.12 µM); against Pseudomonas aeruginosa [14], 1 µg/mL (≈ 2.23 µM).
